“And” between values parts separate entries of the source, which are not always exact repeats. Identical values can stand only once. Toxic doses and inconclusive results are not listed. How the source made its calls: active means survival T/C of 150% or more; inactive means T/C below 125% in these data.
System: P388 leukemia ip, CD2F1 mice, survival T/C
Assay: NCI In Vivo Anticancer Drug Screen. Data for tumor model P388 Leukemia (intraperitoneal) in CD2F1 (CDF1) mice
Conditions: endpoint: median survival time, higher = longer survival
In short: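 Mice carrying the transplanted tumor received test compound or vehicle. Survival was recorded in each group, and the value is the treated-group measurement divided by that of the vehicle-treated control group.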

[1] = dose: 50.0 mg/kg/injection, schedule: Q01DX009 (ip), vehicle: saline
[2] = dose: 100.0 mg/kg/injection, schedule: Q01DX009 (ip), vehicle: saline
[3] = dose: 200.0 mg/kg/injection, schedule: Q01DX009 (ip), vehicle: saline
[4] = dose: 60.0 mg/kg/injection, schedule: Q01DX005 (ip), vehicle: saline with Tween-80
[5] = dose: 120.0 mg/kg/injection, schedule: Q01DX005 (ip), vehicle: saline with Tween-80
[6] = dose: 50.0 mg/kg/injection, schedule: Q01DX005 (ip), vehicle: Klucel (hydroxypropylcellulose) (HPC)
[7] = dose: 100.0 mg/kg/injection, schedule: Q01DX005 (ip), vehicle: Klucel (hydroxypropylcellulose) (HPC)
[8] = dose: 200.0 mg/kg/injection, schedule: Q01DX005 (ip), vehicle: Klucel (hydroxypropylcellulose) (HPC)
[9] = dose: 50.0 mg/kg/injection, schedule: Q01DX009 (ip), vehicle: saline with Tween-80
[10] = dose: 100.0 mg/kg/injection, schedule: Q01DX009 (ip), vehicle: saline with Tween-80
[11] = dose: 200.0 mg/kg/injection, schedule: Q01DX009 (ip), vehicle: saline with Tween-80
[12] = dose: 12.5 mg/kg/injection, schedule: Q01DX005 (ip), vehicle: Klucel (hydroxypropylcellulose) (HPC)
[13] = dose: 25.0 mg/kg/injection, schedule: Q01DX005 (ip), vehicle: Klucel (hydroxypropylcellulose) (HPC)
[14] = dose: 6.25 mg/kg/injection, schedule: Q01DX009 (ip), vehicle: water
[15] = dose: 12.5 mg/kg/injection, schedule: Q01DX009 (ip), vehicle: water
[16] = dose: 25.0 mg/kg/injection, schedule: Q01DX009 (ip), vehicle: water
[17] = dose: 50.0 mg/kg/injection, schedule: Q01DX009 (ip), vehicle: water

Measured: T/C

O=C1c2cc(Cl)ccc2NC(O)c2cccn21 (stereo not drawn)
inactive: dose: 0.1 mg/kg/injection, schedule: Q01DX005 (ip), vehicle: water 93 % of control | dose: 0.2 mg/kg/injection, schedule: Q01DX005 (ip), vehicle: water 89 % of control | dose: 0.4 mg/kg/injection, schedule: Q01DX005 (ip), vehicle: water 90 % of control | dose: 0.8 mg/kg/injection, schedule: Q01DX005 (ip), vehicle: water 98 % of control | dose: 1.6 mg/kg/injection, schedule: Q01DX005 (ip), vehicle: water 98 % of control | dose: 5.0 mg/kg/injection, schedule: Q01DX005 (ip), vehicle: distilled water + Tween-80 95 % of control | dose: 10.0 mg/kg/injection, schedule: Q01DX005 (ip), vehicle: distilled water + Tween-80 101 % of control | dose: 20.0 mg/kg/injection, schedule: Q01DX005 (ip), vehicle: distilled water + Tween-80 95 % of control | dose: 40.0 mg/kg/injection, schedule: Q01DX005 (ip), vehicle: distilled water + Tween-80 92 % of control | dose: 80.0 mg/kg/injection, schedule: Q01DX005 (ip), vehicle: distilled water + Tween-80 93 % of control

CCCCCCCCCCCC(=O)N(C)CCOC(=O)C(C)(C)C
inactive: [1] 106 % of control | [2] 98 % of control | [3] 116 % of control

CC(C)C(=O)CC1(O)C(=O)Nc2ccc([N+](=O)[O-])cc21 (stereo not drawn)
inactive: [4] 101 % of control | [5] 93 % of control | dose: 240.0 mg/kg/injection, schedule: Q01DX005 (ip), vehicle: saline with Tween-80 91 % of control

COc1ccc(CC#N)c(C(=O)O)c1
inactive: [6] 106 % of control | [7] 103 % of control | [8] 101 % of control

Nc1nc(N)c(N2CCN(Cc3ccccc3)CC2)c(Cl)n1
inactive: dose: 15.0 mg/kg/injection, schedule: Q01DX005 (ip), vehicle: Klucel (hydroxypropylcellulose) (HPC) 101 % of control | dose: 30.0 mg/kg/injection, schedule: Q01DX005 (ip), vehicle: Klucel (hydroxypropylcellulose) (HPC) 99 % of control | dose: 60.0 mg/kg/injection, schedule: Q01DX005 (ip), vehicle: Klucel (hydroxypropylcellulose) (HPC) 99 % of control and 104 % of control

O=C(O)CN(CCN(CC(=O)O)CC(=O)O)CC(=O)O.[O]=[Mo]1[O][Mo](=[O])[O]1
inactive: [1] 89 % of control | [2] 90 % of control

O=C1NC(=O)C2CCCc3cccc1c32 (stereo not drawn)
inactive: [9] 100 % of control | [10] 97 % of control | [11] 110 % of control

O=[N+]([O-])c1cccc(C2OCC3(CO2)COC(c2cccc([N+](=O)[O-])c2)OC3)c1 (stereo not drawn)
inactive: [1] 100 % of control | [2] 100 % of control | [3] 101 % of control

Clc1ccc(CN2COc3c(ccc4ccccc34)C2)cc1
inactive: dose: 100.0 mg/kg/injection, schedule: Q04DX003 (ip), vehicle: Klucel (hydroxypropylcellulose) (HPC) 103 % of control | dose: 200.0 mg/kg/injection, schedule: Q04DX003 (ip), vehicle: Klucel (hydroxypropylcellulose) (HPC) 94 % of control | dose: 400.0 mg/kg/injection, schedule: Q04DX003 (ip), vehicle: Klucel (hydroxypropylcellulose) (HPC) 94 % of control

O=S(=O)(c1cccc(N=C=S)c1)c1cccc(N=C=S)c1
inactive: dose: 6.25 mg/kg/injection, schedule: Q01DX005 (ip), vehicle: Klucel (hydroxypropylcellulose) (HPC) 123 % of control | [12] 117 % of control and 123 % of control | [13] 123 % of control | [6] 103 % of control

CN(C)c1ccc(/C=C/C(=O)c2ccc(Nc3ccnc4cc(Cl)ccc34)cc2)cc1
inactive: dose: 400.0 mg/kg/injection, schedule: Q04DX002 (ip), vehicle: saline with Tween-80 93 % of control

CCCC[C@H]1C(=O)O[C@H](C)[C@H](NC(=O)c2cccc(NC=O)c2O)C(=O)O[C@@H](C)[C@@H]1OC(=O)CC(C)C
inactive: dose: 0.12 mg/kg/injection, schedule: Q01DX009 (ip), vehicle: Klucel (hydroxypropylcellulose) (HPC) 105 % of control | dose: 0.25 mg/kg/injection, schedule: Q01DX009 (ip), vehicle: Klucel (hydroxypropylcellulose) (HPC) 105 % of control | dose: 0.5 mg/kg/injection, schedule: Q01DX009 (ip), vehicle: Klucel (hydroxypropylcellulose) (HPC) 109 % of control | dose: 1.0 mg/kg/injection, schedule: Q01DX009 (ip), vehicle: Klucel (hydroxypropylcellulose) (HPC) 119 % of control

CC(O)CC1C=CCC(CC(O)c2ccccc2)N1C (stereo not drawn)
inactive: [12] 102 % of control | [13] 100 % of control | [6] 105 % of control

Nn1cn[nH]c1=S
inactive: dose: 25.0 mg/kg/injection, schedule: Q01DX009 (ip), vehicle: saline 100 % of control | [1] 97 % of control | [2] 98 % of control | [3] 100 % of control

O=NNc1cncc(Cl)n1
inactive: dose: 3.12 mg/kg/injection, schedule: Q01DX009 (ip), vehicle: water 100 % of control | [14] 97 % of control | [15] 105 % of control | [16] 99 % of control | [17] 92 % of control and 97 % of control

ClCCc1cnc[nH]1
inactive: [14] 101 % of control | [15] 101 % of control | [16] 108 % of control | [17] 110 % of control | dose: 100.0 mg/kg/injection, schedule: Q01DX009 (ip), vehicle: water 95 % of control

O=C(O)/C(Cl)=C(\Cl)C(=O)Nc1cccc([N+](=O)[O-])c1
inactive: dose: 7.5 mg/kg/injection, schedule: Q01DX005 (ip), vehicle: saline with Tween-80 100 % of control | dose: 15.0 mg/kg/injection, schedule: Q01DX005 (ip), vehicle: saline with Tween-80 101 % of control | [4] 100 % of control and 103 % of control | [5] 106 % of control

NC(=O)CNC(c1ccccc1)c1ccccc1
inactive: dose: 37.5 mg/kg/injection, schedule: Q01DX009 (ip), vehicle: saline with Tween-80 107 % of control | dose: 75.0 mg/kg/injection, schedule: Q01DX009 (ip), vehicle: saline with Tween-80 106 % of control | dose: 150.0 mg/kg/injection, schedule: Q01DX009 (ip), vehicle: saline with Tween-80 100 % of control

Cc1ccc(S(=O)(=O)NC(CCC(N)=O)C(=O)O)cc1 (stereo not drawn)
inactive: dose: 50.0 mg/kg/injection, schedule: Q01DX005 (ip), vehicle: saline with Tween-80 100 % of control | dose: 100.0 mg/kg/injection, schedule: Q01DX005 (ip), vehicle: saline with Tween-80 103 % of control | dose: 200.0 mg/kg/injection, schedule: Q01DX005 (ip), vehicle: saline with Tween-80 91 % of control

Cc1ccn2c([N+](=O)[O-])cnc2c1
inactive: [9] 107 % of control | [10] 104 % of control | [11] 102 % of control

C/C=C/C=C/C(=O)CCC1(C)OC(=O)C(C)=C1O (stereo not drawn)
inactive: [6] 96 % of control | [7] 113 % of control | [8] 93 % of control

C=CC(C)(C)C12Oc3c(ccc(OC)c3OC)C1=COc1cc(O)ccc12 (stereo not drawn)
inactive: dose: 100.0 mg/kg/injection, schedule: Q01DX001 (ip), vehicle: Klucel (hydroxypropylcellulose) (HPC) 101 % of control | dose: 200.0 mg/kg/injection, schedule: Q01DX001 (ip), vehicle: Klucel (hydroxypropylcellulose) (HPC) 105 % of control | dose: 400.0 mg/kg/injection, schedule: Q01DX001 (ip), vehicle: Klucel (hydroxypropylcellulose) (HPC) 97 % of control

C=C1C(=O)OC2/C=C(\C)C(O)CCC(C)(O)CC(OC(=O)/C(C)=C/C)C12 (stereo not drawn)
inactive: dose: 7.5 mg/kg/injection, schedule: Q01DX009 (ip), vehicle: saline with Tween-80 104 % of control | dose: 15.0 mg/kg/injection, schedule: Q01DX009 (ip), vehicle: saline with Tween-80 98 % of control | dose: 30.0 mg/kg/injection, schedule: Q01DX009 (ip), vehicle: saline with Tween-80 104 % of control | dose: 60.0 mg/kg/injection, schedule: Q01DX009 (ip), vehicle: saline with Tween-80 108 % of control

Nc1ncnc(N)c1N=O
inactive: dose: 50.0 mg/kg/injection, schedule: Q04DX003 (ip), vehicle: saline with Tween-80 100 % of control | dose: 100.0 mg/kg/injection, schedule: Q04DX003 (ip), vehicle: saline with Tween-80 104 % of control | dose: 200.0 mg/kg/injection, schedule: Q04DX003 (ip), vehicle: saline with Tween-80 100 % of control

Cc1cnn(-c2ccccc2)[n+]1[O-]
inactive: dose: 50.0 mg/kg/injection, schedule: Q01DX005 (ip), vehicle: saline 99 % of control | dose: 100.0 mg/kg/injection, schedule: Q01DX005 (ip), vehicle: saline 96 % of control | dose: 200.0 mg/kg/injection, schedule: Q01DX005 (ip), vehicle: saline 102 % of control

Reference: PubChem BioAssay AID330 (DTP/NCI, 2004)
